Here are results for 1 molecule from patent US20100203531A1, “PREDICTING RESPONSIVENESS TO TEMOZOLOMIDE” (priority 2007, published 2010).

What all share (format): in vivo, human
Assay [1] concerns GBM14 cells transduced with a luciferase-expressing lentiviral construct. As to the kind of experiment: Salvage TMZ therapy in intracranial GBM14-luciferase tumors with bioluminescence imaging. How it is done:
Development of resistance to TMZ during in vivo therapy: The effect of salvage TMZ therapy in recurrent tumors was studied in the GBM14 xenograft line with the assistance of bioluminescence imaging (BLI). In this study, GBM14 cells were transduced with a luciferase-expressing lentiviral construct and then used to establish intracranial tumors. Mice were randomized into three groups: a) vehicle control, b) single dose of 120 mg/kg TMZ, c) initial TMZ dose followed by a second TMZ dose at the time of tumor regrowth, as indicated by BLI (FIGS. 7A and B). […] Extrapolating to the clinic, the apparent development of TMZ resistance during the course of treatment is reminiscent of patients who experience an initial response to TMZ therapy but then develop progressive disease during latter cycles of TMZ treatment.

Assay [2] has as its system GBM38 xenograft. As to the kind of experiment: Orthotopic intracranial xenograft survival, GBM38. How it is done:
In vivo sensitivity of GBM lines to TMZ: To address whether MGMT methylation or polypeptide expression status are predictive of TMZ responsiveness, the effects of TMZ therapy on survival were evaluated in the panel of xenografts using an orthotopic therapy model. Mice with established intracranial xenografts were treated with 66 mg/kg TMZ or placebo daily for 5 days by oral gavage. This TMZ dosing regimen provides the equivalent dose-exposure to TMZ as the standard adjuvant TMZ dosing regimen for GBM patients of 200 mg/m^2×5 days. All mice were followed until reaching a moribund state, and the relative prolongation of survival following TMZ treatment was calculated for each line relative to placebo treatment (Table 1). […] Further analysis of the relationship between TMZ responsiveness and MGMT methylation status in 17 xenograft lines was conducted by comparing the distribution of median survival prolongation results for methylation-positive and methylation-negative groups of xenografts. From this analysis, MGMT methylation was modestly associated with increased TMZ sensitivity (FIG. 2, p=0.039, two-sample rank sum test). […]

Assay [3] deals with GBM10 xenograft. As to the kind of experiment: Orthotopic intracranial xenograft survival, GBM10. How it is done:
In vivo sensitivity of GBM lines to TMZ: To address whether MGMT methylation or polypeptide expression status are predictive of TMZ responsiveness, the effects of TMZ therapy on survival were evaluated in the panel of xenografts using an orthotopic therapy model. Mice with established intracranial xenografts were treated with 66 mg/kg TMZ or placebo daily for 5 days by oral gavage. This TMZ dosing regimen provides the equivalent dose-exposure to TMZ as the standard adjuvant TMZ dosing regimen for GBM patients of 200 mg/m^2×5 days. All mice were followed until reaching a moribund state, and the relative prolongation of survival following TMZ treatment was calculated for each line relative to placebo treatment (Table 1). […] Further analysis of the relationship between TMZ responsiveness and MGMT methylation status in 17 xenograft lines was conducted by comparing the distribution of median survival prolongation results for methylation-positive and methylation-negative groups of xenografts. From this analysis, MGMT methylation was modestly associated with increased TMZ sensitivity (FIG. 2, p=0.039, two-sample rank sum test). In a similar analysis of MGMT polypeptide expression levels, high levels of MGMT polypeptide expression were invariably associated with relative TMZ resistance, and the absence of MGMT polypeptide expression was associated with significant TMZ sensitivity (r=−0.73, p=0.005). […] While p53, PTEN and EGFR function have been linked to TMZ sensitivity in some models, no correlation between genetic alterations of these genes and TMZ responsiveness was observed.
Orthotopic model: Therapy evaluations were conducted using an orthotopic tumor model as described elsewhere (Sarkaria et al., Clin Cancer Res, 12:2264-2271 (2006), Giannini et al., Neuro-Oncology, 7:164-176, (2005)). Athymic nude mice (NCI, Frederick, Md.) with established intracranial tumors were randomized into groups of 8 to 10 mice each and treatment was initiated 2 weeks before mice were expected to become moribund. TMZ was purchased from the Mayo Clinic Pharmacy, suspended in Ora-plus (Paddock Laboratories, Minneapolis. […] Mice were observed daily and euthanized when moribund.
Statistical analysis: Survival distributions were estimated using the Kaplan-Meier method. The log rank test was used to compare survival across treatment groups. All GBM experiments were pooled and Classification and Regression Tree analysis (CART) was used to identify which CpG sites in the MS-PCR assay (CpG sites 78-82, 86-89) were predictive of overall survival in TMZ treated mice. The two-sample rank sum test was used to compare relative differences in survival relative to MGMT MS-PCR status or CpG89 methylation status. Spearman's correlation coefficient was used to assess the association of relative median survival and protein expression levels of MGMT relative to 13-actin.

The structures appear in SMILES notation.

As to `Cn1nnc2c(C(N)=O)ncn2c1=O` [TMZ, Temozolomide], the “additional survival from second TMZ dose” value in assay [1] (second TMZ dose at time of tumor regrowth/recurrence, beyond single-dose prolongation) was 22 days. Further, the “survival prolongation with a single TMZ dose” value in assay [1] (single dose of 120 mg/kg TMZ, relative to placebo/vehicle, intracranial GBM14-luciferase) was 56 days. The Survival benefit in assay [2] (GBM38, prolongation of median survival relative to placebo, TMZ 66 mg/kg oral x5 days) is recorded as 45%; in assay [3] (GBM10, prolongation of median survival relative to placebo, TMZ 66 mg/kg oral x5 days) it was 34%; in assay [3] (GBM10 generation 8, TMZ 120 mg/kg for 5 days, intracranial) it was 6%; in assay [3] (GBM10 generation 19, TMZ 66 mg/kg for 5 days, intracranial), 34%. Further, the TMZ median survival in assay [2] (GBM38 intracranial xenograft, nude mice, TMZ 66 mg/kg oral daily x5 days) was found to be 80; in assay [3] (GBM10 intracranial xenograft, nude mice, TMZ 66 mg/kg oral daily x5 days), 55. Also, the “Survival Prolongation” value in assay [3] (GBM10, median survival relative to placebo, 66 mg/kg oral for 5 days (Table 3)) was 34%. The Temozolomide median survival in assay [3] (GBM10 intracranial, athymic nude mice, 66 mg/kg oral gavage for 5 days (Table 3)) is recorded as 55.
